In ChEMBL document CHEMBL1909046, “DrugMatrix in vitro pharmacology data”:

What was measured:
[1] = target: Prostaglandin G/H synthase 1 (Homo sapiens, UniProt P23219); experiment: biochemical; assay type: tissue-based, Platelet; conditions: platelet;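 further: inhibition of COX-1 enzyme activity, with arachidonic acid supplied as substrate; in other assays of this panel Not Active means under 50% inhibition at 10 µM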
Cytochrome P450 2C19 = Cytochrome P450 2C19 (Homo sapiens, UniProt P33261); conditions: bti-tn-5b1-4; further: in other assays of this panel Not Active means under 50% inhibition at 10 µM
Cytochrome P450 2C19, sequence (P33261 whole entry): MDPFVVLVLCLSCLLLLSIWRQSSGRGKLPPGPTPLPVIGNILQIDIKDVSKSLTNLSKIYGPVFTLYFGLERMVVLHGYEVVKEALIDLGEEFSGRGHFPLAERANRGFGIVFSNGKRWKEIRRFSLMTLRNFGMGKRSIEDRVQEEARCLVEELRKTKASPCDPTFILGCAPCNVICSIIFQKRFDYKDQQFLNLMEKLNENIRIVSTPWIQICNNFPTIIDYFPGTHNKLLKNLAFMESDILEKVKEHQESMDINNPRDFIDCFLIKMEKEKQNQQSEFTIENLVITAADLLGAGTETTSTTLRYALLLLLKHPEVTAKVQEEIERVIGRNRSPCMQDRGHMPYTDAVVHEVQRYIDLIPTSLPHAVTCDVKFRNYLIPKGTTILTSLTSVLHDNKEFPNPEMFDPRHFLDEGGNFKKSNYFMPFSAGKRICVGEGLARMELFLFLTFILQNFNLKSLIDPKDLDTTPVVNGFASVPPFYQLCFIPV

Carbonic anhydrase 2 = Carbonic anhydrase 2 (Homo sapiens, UniProt P00918); experiment: DRUGMATRIX: Carbonic Anhydrase II enzyme inhibition (substrate: 4-Nitrophenyl acetate (4-NPA)); assay type: tissue-based, Erythrocyte; conditions: erythrocyte; Not Active = under 50% inhibition at 10 µM
[2] = target: 5-hydroxytryptamine receptor 1B (Rattus norvegicus, UniProt P28564); assay type: cell membranes, Wistar, Cerebral cortex, Membrane; further: in other assays of this panel Not Active means under 50% inhibition at 10 µM
5-hydroxytryptamine receptor 1B, sequence (P28564 whole entry): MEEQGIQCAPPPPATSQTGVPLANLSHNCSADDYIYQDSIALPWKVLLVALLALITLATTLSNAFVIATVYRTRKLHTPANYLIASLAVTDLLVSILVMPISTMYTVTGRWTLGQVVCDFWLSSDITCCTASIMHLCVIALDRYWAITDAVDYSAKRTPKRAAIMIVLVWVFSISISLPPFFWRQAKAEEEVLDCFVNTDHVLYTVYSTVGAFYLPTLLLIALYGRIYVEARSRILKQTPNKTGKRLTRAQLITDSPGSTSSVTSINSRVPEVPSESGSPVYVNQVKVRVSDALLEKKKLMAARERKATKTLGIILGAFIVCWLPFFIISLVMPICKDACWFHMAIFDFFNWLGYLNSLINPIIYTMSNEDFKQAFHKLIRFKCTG

Cytochrome P450 2C9 = Cytochrome P450 2C9 (Homo sapiens, UniProt P11712); conditions: bti-tn-5b1-4; further: in other assays of this panel Not Active means under 50% inhibition at 10 µM
Cytochrome P450 2C9, sequence (P11712 whole entry): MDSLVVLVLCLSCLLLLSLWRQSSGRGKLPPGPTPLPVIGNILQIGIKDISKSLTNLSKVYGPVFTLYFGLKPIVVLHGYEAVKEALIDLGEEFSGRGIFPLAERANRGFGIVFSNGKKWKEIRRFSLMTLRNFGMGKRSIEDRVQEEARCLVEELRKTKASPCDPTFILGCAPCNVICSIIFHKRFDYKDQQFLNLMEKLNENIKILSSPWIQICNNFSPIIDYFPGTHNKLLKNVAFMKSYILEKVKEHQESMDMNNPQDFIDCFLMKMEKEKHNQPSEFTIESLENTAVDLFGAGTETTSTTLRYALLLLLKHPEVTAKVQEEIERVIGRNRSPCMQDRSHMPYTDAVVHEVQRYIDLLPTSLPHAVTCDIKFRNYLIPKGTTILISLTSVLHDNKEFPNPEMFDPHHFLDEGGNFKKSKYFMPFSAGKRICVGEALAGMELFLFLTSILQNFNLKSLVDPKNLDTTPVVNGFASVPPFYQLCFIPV

[3] = target: cGMP-specific 3',5'-cyclic phosphodiesterase (Homo sapiens, UniProt O76074); experiment: DRUGMATRIX: Phosphodiesterase PDE5 enzyme inhibition (substrate: [3H]cGMP + cGMP); assay type: tissue-based, Platelet; conditions: platelet; Not Active = under 50% inhibition at 10 µM
[4] = target: T1, Alpha-1B adrenergic receptor (Rattus norvegicus, UniProt P15823); experiment: DRUGMATRIX: Alpha-1B adrenergic receptor radioligand binding (ligand: prazosin); assay type: cell membranes, Wistar, Liver, Membrane; conditions: Not Active = under 50% inhibition at 10 µM
T1 sequence (P15823 whole entry): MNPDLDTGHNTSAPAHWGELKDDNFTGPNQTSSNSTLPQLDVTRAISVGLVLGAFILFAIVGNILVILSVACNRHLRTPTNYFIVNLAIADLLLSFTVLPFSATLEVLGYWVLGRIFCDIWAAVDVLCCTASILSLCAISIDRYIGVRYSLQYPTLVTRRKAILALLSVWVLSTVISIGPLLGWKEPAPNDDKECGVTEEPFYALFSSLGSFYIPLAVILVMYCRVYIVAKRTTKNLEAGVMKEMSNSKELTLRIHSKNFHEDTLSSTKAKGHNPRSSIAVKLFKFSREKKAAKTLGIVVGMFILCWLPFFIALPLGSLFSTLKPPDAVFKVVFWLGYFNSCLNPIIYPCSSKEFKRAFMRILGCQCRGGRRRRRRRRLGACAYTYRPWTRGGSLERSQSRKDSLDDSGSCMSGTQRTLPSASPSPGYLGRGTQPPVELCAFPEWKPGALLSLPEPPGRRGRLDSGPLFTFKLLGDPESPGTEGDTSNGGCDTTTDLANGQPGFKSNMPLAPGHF

Prostaglandin G/H synthase 1, sequence (P23219 whole entry): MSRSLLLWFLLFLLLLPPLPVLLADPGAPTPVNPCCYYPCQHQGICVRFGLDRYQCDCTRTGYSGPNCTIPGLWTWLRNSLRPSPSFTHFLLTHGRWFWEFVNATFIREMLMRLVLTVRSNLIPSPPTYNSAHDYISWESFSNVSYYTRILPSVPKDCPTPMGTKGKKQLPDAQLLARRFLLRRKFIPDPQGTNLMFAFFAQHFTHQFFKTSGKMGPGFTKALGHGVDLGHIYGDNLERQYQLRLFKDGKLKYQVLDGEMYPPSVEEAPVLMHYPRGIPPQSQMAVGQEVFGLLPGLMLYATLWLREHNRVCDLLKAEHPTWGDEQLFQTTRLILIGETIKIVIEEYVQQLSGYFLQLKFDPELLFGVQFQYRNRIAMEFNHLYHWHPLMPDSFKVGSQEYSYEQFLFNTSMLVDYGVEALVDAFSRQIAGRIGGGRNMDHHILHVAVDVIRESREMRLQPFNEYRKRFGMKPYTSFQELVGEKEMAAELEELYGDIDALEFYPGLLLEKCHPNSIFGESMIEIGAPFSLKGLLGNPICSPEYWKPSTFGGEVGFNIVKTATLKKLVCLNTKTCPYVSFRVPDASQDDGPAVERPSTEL

ClC1=C(Cl)[C@]2(Cl)[C@@H]3[C@@H]4C[C@@H]([C@H]5O[C@@H]45)[C@@H]3[C@@]1(Cl)C2(Cl)Cl [DIELDRIN]
Not Active: IC50 [1] | IC50 (Cytochrome P450 2C19) | Ki (Cytochrome P450 2C19) | IC50 (Carbonic anhydrase 2) | IC50 [2] | IC50 (Cytochrome P450 2C9) | Ki (Cytochrome P450 2C9) | IC50 [3] | IC50 [4]

O=c1[nH]c2ccccc2c2ccccc12
Not Active: IC50 [1] | IC50 (Cytochrome P450 2C19) | Ki (Cytochrome P450 2C19) | IC50 (Carbonic anhydrase 2) | IC50 [2] | IC50 (Cytochrome P450 2C9) | Ki (Cytochrome P450 2C9) | IC50 [3] | IC50 [4]

CCC1(c2ccccc2)C(=O)NC(=O)NC1=O [PHENOBARBITAL]
Not Active: IC50 [1] | IC50 (Cytochrome P450 2C19) | Ki (Cytochrome P450 2C19) | IC50 (Carbonic anhydrase 2) | IC50 [2] | IC50 (Cytochrome P450 2C9) | Ki (Cytochrome P450 2C9) | IC50 [3] | IC50 [4]

Nc1ccc(C(=O)O)c(O)c1 [AMINOSALICYLIC ACID]
Not Active: IC50 [1] | IC50 (Cytochrome P450 2C19) | Ki (Cytochrome P450 2C19) | IC50 (Carbonic anhydrase 2) | IC50 [2] | IC50 (Cytochrome P450 2C9) | Ki (Cytochrome P450 2C9) | IC50 [3] | IC50 [4]
